Where two headings read alike, the source gives them in different places.
Columns and labels:
ShHTL7 = ShHTL7 (Striga hermonthica, UniProt A0A0M3PNA2); assay: Competitive inhibition of ShHTL7 with Yoshimulactone Green (YLG) as substrate; format: biochemical
Procedure: Based on the structural feature of the lead compound 2h, we selected three regions to perform further modification (Supplementary Fig. 6), to try to further improve bioactivity. Insertion of a carbonyl group between the bicyclo[2.2.1]hept-5-en-2-yl group and the piperazine ring was detrimental to binding affinity (Supplementary Fig. 6, region A). Removal of an oxygen atom in region B was found unfavorable to binding affinity as well. Therefore, we focused on modifying the benzene ring (region C) for 2h. A series of compounds with different groups at region C was synthesized (Supplementary Scheme 1). […] As SPR just measures the binding ability, another independent assay by using Yoshimulactone Green (YLG) as the fluorescent substrate was performed to determine the half-maximal inhibitory concentration (IC50) of these compounds against ShHTL7[22].
(§1) The excitation and emission wavelengths of YLG are 480 and 520 nm, respectively. We used a fluorescence spectrophotometer (CARY Eclipse) to detect the fluorescence intensity change of YLG during the enzymatic hydrolysis assay process. All the testing compounds and YLG were dissolved in DMSO and prepared as stock solutions just before use. […] The changes of fluorescence at 520 nm of each well were recorded every 1 min for 30 min. Using the reaction mixture without adding enzyme and tested compounds as the background control. After subtracting the background hydrolysis, a linear fluorescence increase in 8 min was used for further inspection. The IC50 values were determined via fitting relative inhibition percentages with the varying concentrations of compounds in Microsoft Excel.

P. aegyptiaca seeds = assay: P. aegyptiaca seed germination assay; format: in vivo, Phelipanche aegyptiaca; set-up: P. aegyptiaca germination EC50 values, source data average: unit not given here; P. aegyptiaca seed germination activity, source data average: unit of the concentration uncertain; settings: for P. aegyptiaca seed germination activity, source data average: Supplementary Fig. 9b
Procedure: P. aegyptiaca seeds were harvested from Xinjiang province, China in 2017. The seeds were surface sterilized using 1% NaClO solution for 2 min and then washed with distilled water six times. For seed germination assay, about 20 pieces of glass fiber-filter paper discs (15 mm diameter, Whatman GF/B) were placed separately on two layers of filter papers (9 cm diameter, Whatman) in a Petri dish. Five milliliters of distilled water was added to each Petri dish to wet the papers. Approximately 40–90 sterilized seeds were spread onto each glass fiber-filter paper disc. After the seeds were conditioned in the dark at 25 °C for 4 days[48], glass fiber-filter paper discs were blotted dry on filter papers (9 cm) and transferred to the wells of 24-well cell culture plates. The testing compounds were dissolved in acetone and diluted with H2O (VH2O/Vacetone = 999/1) just before use[49]. rac-GR24 and 1‰ acetone solution were used as positive and negative controls, respectively. One hundred microliters of the test solution was added to each well of the plates, and all treatments were performed in three biological repeats. The plates were sealed and incubated in the dark at 25 °C for a week. The experiments were performed at least three times. The germinated seeds were observed by using an electronic magnifier at ×20 magnification.

[1] = Chemical reactivity analysis (HPLC, methanol/PBS pH 7.4); format: physicochemical; settings: for half-life time (t1/2): 1:3 methanol and PBS (10 mM) pH 7.4, HPLC; for half-life time (t1/2), source data average / half-life at 0.5 mM: Supplementary Fig. 10 source data, methanol/PBS pH 7.4, 26 °C; for half-life at 0.5 mM: methanol/phosphate-buffered saline mixture, read-out: half-life time (t1/2), source data average (converted)
Procedure: Chemical reactivity is an important factor in the bioactivity of natural and synthetic SLs.
One hundred twenty microliters of sample solution was added to a solution of PBS (10 mM, pH 7.4, 810 μL) and methanol (270 μL). The solution was stirred vigorously for 30 s and then transferred to HPLC vial, and the vial was stored at 26 ± 1 °C. […] The analytical column was Extend-C18 (4.6 mm × 150 mm × 5 μm). The mobile phases were CH3CN and H2O (containing 0.1% HCO2H), VCH3CN:VH2O = 50:50, with a flow rate of 1 mL/min, and an injection volume of 5 μL. The percentage of remaining compounds in the solution was calculated from the peak area. The half-life times (t1/2) of samples were calculated.

[2] = tested on: PaKAI2s (5 KAI2 protein homologs in P. aegyptiaca); assay: YLG-based competition assay on KAI2 protein homologs of P. aegyptiaca; format: biochemical, Phelipanche aegyptiaca; settings: Supplementary Fig. 27
Source text: In P. aegyptiaca, 5 KAI2s have been proposed as the SL receptors for the regulation of seed germination. […] The high sequence similarity may explain the consistency of these compounds in inducing germination in both S. hermonthica and P. aegyptiaca.
as §1
Supplementary Fig. 27. Binding of compounds 4a, (R)- and (S)-4a, and 4g-i to the HTL proteins in S. hermonthica and KAI2 protein homologs in P. aegyptiaca. In the competitive inhibitory activity assay, YLG (3 µM) was used as the fluorogenic substrate. Error bar indicates SD (n = 3 biologically independent experiments).
(1 picture or pasted object on this page, not shown here)

[3] = ShHTL7, YLG competition, Supplementary Fig. 27, read-out: IC50, replicate 1
[4] = ShHTL7, YLG competition, Supplementary Fig. 27, read-out: IC50, replicate 2
[5] = ShHTL7, YLG competition, Supplementary Fig. 27, read-out: IC50, replicate 3
[6] = 0.1 (unit uncertain) as printed
[7] = KAI2C, YLG competition, read-out: IC50, replicate 1
[8] = KAI2C, YLG competition, read-out: IC50, replicate 2
[9] = KAI2C, YLG competition, read-out: IC50, replicate 3
[10] = KAI2C, average of 3 replicates, read-out: IC50, average
[11] = KAI2d1, YLG competition, read-out: IC50, replicate 1
[12] = KAI2d1, YLG competition, read-out: IC50, replicate 2
[13] = KAI2d1, YLG competition, read-out: IC50, replicate 3
[14] = KAI2d1, average of 3 replicates, read-out: IC50, average
[15] = KAI2d2, YLG competition, read-out: IC50, replicate 1
[16] = KAI2d2, YLG competition, read-out: IC50, replicate 2
[17] = KAI2d2, YLG competition, read-out: IC50, replicate 3
[18] = KAI2d2, average of 3 replicates, read-out: IC50, average
[19] = KAI2d3, YLG competition, read-out: IC50, replicate 1
[20] = KAI2d3, YLG competition, read-out: IC50, replicate 2
[21] = KAI2d3, YLG competition, read-out: IC50, replicate 3
[22] = KAI2d3, average of 3 replicates, read-out: IC50, average
[23] = KAI2d4, YLG competition, read-out: IC50, replicate 1
[24] = KAI2d4, YLG competition, read-out: IC50, replicate 2
[25] = KAI2d4, YLG competition, read-out: IC50, replicate 3
[26] = KAI2d4, average of 3 replicates, read-out: IC50, average
[27] = wild-type ShHTL7, average of 3, source data of Fig. 2a,b, Supplementary Figs. 8a, 9a, 20b, read-out: IC50, competitive ShHTL7 inhibition (YLG), source data average

Sequence of ShHTL7 (A0A0M3PNA2 entry or part of it): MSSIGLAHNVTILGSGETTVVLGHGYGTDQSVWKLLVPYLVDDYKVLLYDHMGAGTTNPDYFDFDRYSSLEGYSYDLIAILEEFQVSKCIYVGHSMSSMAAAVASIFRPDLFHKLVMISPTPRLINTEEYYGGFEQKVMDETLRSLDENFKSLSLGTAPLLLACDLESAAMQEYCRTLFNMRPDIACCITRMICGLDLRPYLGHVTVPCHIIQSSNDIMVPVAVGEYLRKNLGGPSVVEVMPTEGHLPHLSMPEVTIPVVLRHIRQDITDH

SMILES | IC50 (ShHTL7; [3]) [µM] | IC50 (ShHTL7; [4]) [µM] | IC50 (ShHTL7; [5]) [µM] | IC50 [2, 7] [µM] | IC50 [2, 8] [µM] | IC50 [2, 9] [µM] | IC50 [2, 10] [µM] | IC50 [2, 11] [µM] | IC50 [2, 12] [µM] | IC50 [2, 13] [µM] | IC50 [2, 14] [µM] | IC50 [2, 15] [µM] | IC50 [2, 16] [µM] | IC50 [2, 17] [µM] | IC50 [2, 18] [µM] | IC50 [2, 19] [µM] | IC50 [2, 20] [µM] | IC50 [2, 21] [µM] | IC50 [2, 22] [µM] | IC50 [2, 23] [µM] | other results
CC1=C[C@H](O/C=C2/C(=O)O[C@@H]3c4ccccc4C[C@H]23)OC1=O (racemic) [rac-GR24, reference compound] | 0.633 | 0.842 | 0.614 | 7.31 | 5.69 | 6.56 | 6.52 | 1.78 | 2.83 | 2.39 | 2.33 | 5.14 | 2.89 | 3.46 | 3.83 | 2.27 | 2.04 | 1.55 | 1.95 | 6.41 | IC50 (ShHTL7; ShHTL7, average of 3 replicates, Supplementary Fig. 27, read-out: IC50, average): 0.696 µM; IC50 (ShHTL7; YLG used as the substrate, means ± SD, n = 3, read-out: IC50 (Supplementary Table 1)): 0.73 ± 0.11 µM; germination of P. aegyptiaca seeds, source data average (P. aegyptiaca seeds; 10 μM, Fig. 1d source data, average of 3): 96.5229%; P. aegyptiaca seed germination activity, source data average (P. aegyptiaca seeds; [6]): 90.7731%; P. aegyptiaca seed germination activity, source data average (P. aegyptiaca seeds; 1 (unit uncertain) as printed): 95.3227%; P. aegyptiaca seed germination activity, source data average (P. aegyptiaca seeds; 10 (unit uncertain) as printed): 96.5229%; P. aegyptiaca germination(%) (P. aegyptiaca seeds; Supplementary Table 1, compounds tested at 10 μM, means ± SD, n = 3): 96.4%; EC50 (P. aegyptiaca seeds; in vivo, read-out: EC50, P. aegyptiaca seed germination): 0.0485 nM; P. aegyptiaca germination EC50 values, source data average (P. aegyptiaca seeds; source data of Fig. 2c and Supplementary Fig. 8b, average of 3): 10.3597; half-life time (t1/2) [1]: 3.0 h; half-life time (t1/2), source data average [1]: 3.031 h; IC50 [2, 24]: 5.83 µM; IC50 [2, 25]: 7.25 µM; IC50 [2, 26]: 6.5 µM
CC1=CC(OC(=O)N2CCN(C(=O)COc3ccc(Br)cc3C)CC2)OC1=O (stereo not drawn) [4a] | 0.953 | 1.35 | 1.32 | 10.9 | 13.8 | 21.5 | 15.4 | 33.3 | 33.3 | 24.8 | 30.5 | 40.8 | 46.6 | 48.6 | 45.3 | 30.6 | 26.4 | 27.7 | 28.2 | 17.4 | IC50 (ShHTL7; YLG as substrate, text and Fig. 2, read-out: IC50, competitive ShHTL7 inhibition (YLG assay)): 1.21 ± 0.22 µM; IC50 (ShHTL7; [27]): 1.21 µM; EC50 (P. aegyptiaca seeds; Phelipanche aegyptiaca, read-out: EC50, P. aegyptiaca seed germination): ~0.0862 nM; EC50 (P. aegyptiaca seeds; Phelipanche aegyptiaca, source data of Fig. 2c and Supplementary Fig. 8b, average of 3, read-out: P. aegyptiaca germination EC50 values, source data average (converted)): 0.0628 nM; half-life at 0.5 mM [1]: 3.38 h; IC50 [2, 24]: 17.7 µM; IC50 [2, 25]: 26.3 µM; IC50 [2, 26]: 20.5 µM
CC1=CC(OC(=O)N2CCN(C(=O)COc3ccc(Br)cc3C)CC2)CC1=O (stereo not drawn) [4g] | 3.08 | 1.61 | 1.97 | 53.3 | 49.1 | 43 | 48.5 | 27.1 | 24.4 | 23.2 | 24.9 | 62.3 | 72.7 | 74.9 | 70 | 57.1 | 36.6 | 53.9 | 49.2 | 77.3 | IC50 (ShHTL7; [27]): 2.22 µM; P. aegyptiaca seed germination activity, source data average (P. aegyptiaca seeds; [6]): 11.4951%; P. aegyptiaca seed germination activity, source data average (P. aegyptiaca seeds; 1 (unit uncertain) as printed): 63.9751%; P. aegyptiaca seed germination activity, source data average (P. aegyptiaca seeds; 10 (unit uncertain) as printed): 69.9023%; reactivity in methanol/PBS ([1]; 1:3 methanol and PBS (10 mM) pH 7.4): no apparent hydrolysis was observed in 6 days; half-life at 0.5 mM [1]: > 144 h; IC50 [2, 24]: 85.3 µM; IC50 [2, 25]: 76.1 µM; IC50 [2, 26]: 79.6 µM
CC1=CC(OC(=O)N2CCN(C(=O)COc3ccc(Br)cc3C)CC2)N(C)C1=O (stereo not drawn) [4h] | 4.33 | 5.43 | 4.75 | 23.3 | 36.9 | 38.5 | 32.9 | 24.7 | 22.1 | 27.9 | 24.9 | 71.4 | 67.3 | 71.7 | 70.1 | 30.6 | 41.8 | 41.3 | 37.9 | > 100 | IC50 (ShHTL7; [27]): 4.84 µM; P. aegyptiaca seed germination activity, source data average (P. aegyptiaca seeds; [6]): 6.8801%; P. aegyptiaca seed germination activity, source data average (P. aegyptiaca seeds; 1 (unit uncertain) as printed): 41.0534%; P. aegyptiaca seed germination activity, source data average (P. aegyptiaca seeds; 10 (unit uncertain) as printed): 82.4464%; half-life time (t1/2) [1]: 1.1 h; half-life time (t1/2), source data average [1]: 1.095 h; IC50 [2, 24]: > 100 µM; IC50 [2, 25]: > 100 µM; IC50 [2, 26]: > 100 µM

— paper PMC9271048, “Probing strigolactone perception mechanisms with rationally designed small-molecule agonists stimulating germination of root parasitic weeds” (Nature Communications, 2022)
